Source: patent US20110217337A1, “BIOACTIVE AGENT FOR BONE TISSUE ENGINEERING” (UNIVERSITY OF CONNECTICUT, priority 2010, published 2011)

How the values were obtained:
[1] = water and a variety of pharmaceutically useful buffers and solvents; cited from earlier work
Protein Kinase A (PKA) = conditions: compared to non-specific cAMP analogue db-cAMP; cited from earlier work
MC3T3-E1 cells [2] = assay: ALP activity assay; format: cell-based; conditions: 100 μM
Procedure: FIG. 5. 6-Bnz-cAMP increases ALP activities at day 7 and 14. […] To facilitate the comparison of different experimental settings, the ALP activity of the cells cultured in the regular growth medium at Day 7 was set to one relative unit.
(§1) MC3T3-E1 cells were grown in mineralization media. 6-Bnz-cAMP was added to the culture medium to a final concentration of 100 μM for experiments; mineralization media only was used for positive controls. Osteoblast-associated markers were quantitated at days 7 and 14. Markers include increased alkaline phosphatas (ALP) activity (FIG. 5) and calcium precipitation in MC3T3-E1 cells (FIG. 6). 6-Bnz-cAMP toxicity was assessed at days 7, 14, and 21 in cells treated with 100 micromolar 6-Bnz-cAMP compared to untreated cells. Trypan blue staining was used to visualize cells (FIG. 7).
ALP activities were measured using ALP assay kit according to the manufacturer's instructions (Bio-Rad, Hercules, Calif.). Briefly, at day 7 and 14, cells were collected and washed 4 times with PBS prior to the ALP activity assay. Cells were then lysed with 0.1% TX-100. Cell lysates were collected and mixed with the ALP substrate solution for 1 h at 37° C. incubation. The colorimetric change due to the presence of ALP activity was measured by a spectrophotometric plate reader at 405 nm. The absorbance values were then normalized to cellular DNA.

MC3T3E1 cells = assay: Cell adhesion on PLAGA matrices (crystal violet stain); format: cell-based; conditions: 100 μM vs untreated, adhesion for at least 1 h
Procedure: FIG. 2. Effects of 6-Bnz-cAMP on cell adhesion in MC3T3E1 on PLAGA matrices. Cells were treated with 100 μM 6-Bnz-cAMP or untreated. Cells were allowed to adhere for at least 1 h, and nonadherent cells were removed by washing with phosphate buffer saline (PBS). The adhered cells were stained with crystal violet solution for 15 minutes at room temperature and the absorbed stain dye was then solubilized in 1% SDS solution. The amount of dye taken up by the cells was measured in a spectrophotometer. The plots shown are representative of two independent experiments, each done in triplicate (n=3). Error bars represent SD.
For these experiments, the polymer component of the scaffold, poly(lactic-co-glycolide) (PLAGA) was selected because of its documented degradability and biocompatibility.
More specifically, thin film discs of poly(lactic-co-glycolide) (PLAGA) were fabricated using a traditional solvent-casting method. In this process, the polymer was first dissolved in methylene chloride, then poured into a Teflon-coated dish. The dishes were then placed in a −20° C. freezer to allow solvent evaporation. […]
Adhesion: In the cell adhesion study presented in FIG. 2 cells were allowed to adhere for at least 1 h, and nonadherent cells were removed by washing with phosphate buffer saline (PBS). […] The amount of dye taken up by the cells was measured in a spectrophotometer.

MC3T3-E1 cells [3] = assay: Matrix mineralization, quantitative calcium assay; format: cell-based; conditions: 100 μM in mineralization medium vs mineralization medium alone; day 21
Procedure: FIG. 6. 6-Bnz-cAMP promotes osteoblastic mineralization by day 21. After 20 days of culture of osteoblast-like MC3T3-E1 cells in mineralization medium with or without 6-Bnz-cAMP, quantitative calcium levels were determined. […] To facilitate the comparison of different experimental settings, the level of calcium measurement of the “Control” cells cultured in the regular growth medium was set to one relative unit.
MC3T3-E1 cells were grown in mineralization media (The minimal media described in Example 1 with, 1% of antibiotic (100 U/ml penicillin G and […] streptomycin), 3 mM β-glycerolphosphate, and 10 μg/ml ascorbic acid). 6-Bnz-cAMP was added to the culture medium to a final concentration of 100 μM for experiments; mineralization media only was used for positive controls. For the qualitative determination of calcified matrix mineralization, at day 21, media were removed and cells were rinsed with calcium-free PBS for 3 times. The precipitated calcium of mineralized matrix was dissolved overnight in 0.6N hydrochloric acid at 4° C. The extracted calcium was then measured with a calcium assay kit (Calcium Liquicolor, Stanbio Laboratory, Boerne, Tex.) according to the manufacturer's instructions. The absorbance values were normalized to cellular DNA.

[4] = test system: rat mesenchymal stem cells; assay: Proliferation of mesenchymal stem cells seeded on PLAGA scaffolds, PicoGreen dsDNA assay; format: cell-based; conditions: each time point, day 7 to day 21
Procedure: FIG. 8. Effect of 6-Bnz-cAMP on the proliferation of rat mesenchymal stem cells seeded on PLAGA scaffolds. Cell proliferation was assessed by PicoGreen dsDNA assay.
Evaluation of the in vitro cellular behaviors of rabbit MSC on the 6-Bnz-cAMP loaded PLAGA microsphere based scaffold: For in vitro studies, cells are plated onto the 6-Bnz-cAMP loaded and unloaded control scaffolds. Cell adhesion is determined at 1, 3, 6 and 24 hours. Cell proliferation levels are determined at Day 3, 7, and 14 (FIG. 8). Cell differentiation and mineralization are determined at Day 7, 14, 21, and 28. At the pre-determined times, scaffolds will be removed from the medium and unattached cells are removed by washing with PBS 4 times. The in vitro assays are performed on the attached cells according to the procedures described above in Example 3.

[5] = designed to resist enzymatic degradation in vivo; cited from earlier work
MC3T3-E1 cells [6] = assay: Trypan blue viability assay; format: cell-based; conditions: 100 micromolar, days 7, 14 and 21
Procedure: FIG. 7. MC3T3-E1 cell viability of cells treated with 6-Bnz-cAMP compared to untreated cells. Cell viability was measured by trypan blue viability stain.
Viability: Cell viability is determined using a trypan blue viability assay. For trypan blue viability assay method, at day 7, 14, and 21, cells were collected by trypsinization and stained with trypan blue dye (MP Biochemicals LLC, Solon, Ohio). The cells were then numbered in a hemacytometer (Hausser Scientific, Horsham, Pa.) under a light microscopy (Olympus Corporation, Tokyo, Japan). Cell stained blue was scored a dead cell, while unstained cell was scored a live cell. The results are presented in % of viability.
as §1

In the case of `O=C(Nc1ncnc2c1ncn2C1O[C@@H]2COP(=O)([O-])O[C@H]2[C@H]1O)c1ccccc1.[Na+]` (stereo partly drawn) [6-Bnz-cAMP, N^6-Benzoyladenosine-3′,5′-cyclic monophosphate], the solubility [1] is given as “soluble in water”, the “activation of the Protein Kinase A (PKA) pathway” value (Protein Kinase A (PKA)) is given as “selectively activates” and the ALP activity (MC3T3-E1 cells [2]; day 7) is given as “induced”. The ALP activity (MC3T3-E1 cells [2]; day 14) was “further increased”, the initial cell adhesion (MC3T3E1 cells) was “enhances the initial cell adhesion” and the calcium deposition (MC3T3-E1 cells [3]) was “further enhanced calcium deposition”. The “cell proliferation vs untreated control” value [4] was “No significant differences”, the half-life [5] was “long half-life” and the “cell viability vs untreated cells” value (MC3T3-E1 cells [6]) was “No significant differences”.
